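Following 48 hours of exposure in 96-well plates, responses at five concentrations were used to interpolate endpoints linearly. GI50: concentration for 50% inhibition of growth.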 Active and inactive are the calls of the source. Rule as the data show it: active = GI50 up to about 1.1 µM and inactive = higher.
Key:
Experiment in all cases: inhibition of tumour cell growth, NCI panel, 48 h
786-0 = test system: 786-0
ACHN = test system: ACHN
CCRF-CEM = test system: CCRF-CEM
COLO 205 = test system: COLO 205
DMS-273 = test system: DMS-273
HCC 2998 = test system: HCC 2998
K562 = test system: K562
NCI-H226 = test system: NCI-H226
NCI-H460 = test system: NCI-H460
OVCAR-3 = test system: OVCAR-3
OVCAR-5 = test system: OVCAR-5
RXF 393 = test system: RXF 393
SF-295 = test system: SF-295
SNB-19 = test system: SNB-19
SNB-75 = test system: SNB-75
UACC-257 = test system: UACC-257
UACC-62 = test system: UACC-62
BT-549 = test system: BT-549
DU-145 = test system: DU-145
PC-3 = test system: PC-3

Measured: GI50

C/C(=N/O)C1CC=C(S(=O)(=O)c2ccccc2)C1 (stereo not drawn)
inactive: 786-0 > 100 µM | ACHN > 100 µM | CCRF-CEM > 100 µM | COLO 205 > 100 µM | DMS-273 > 100 µM | HCC 2998 > 100 µM | K562 > 100 µM | NCI-H226 > 100 µM | NCI-H460 > 100 µM | OVCAR-3 > 100 µM | OVCAR-5 > 100 µM | RXF 393 > 100 µM | SF-295 > 100 µM | SNB-19 > 100 µM | SNB-75 > 100 µM | UACC-257 > 100 µM | UACC-62 > 10 µM

CC1=NN(c2ccccc2)C(=O)C1/N=N/c1ccc(Br)c(C)c1 (stereo not drawn)
inactive: 786-0 > 100 µM | ACHN > 100 µM | CCRF-CEM 55.7 µM | COLO 205 > 100 µM | DMS-273 > 100 µM | HCC 2998 > 100 µM | K562 > 100 µM | NCI-H226 > 100 µM | NCI-H460 > 100 µM | OVCAR-3 > 100 µM | OVCAR-5 > 100 µM | RXF 393 > 100 µM | SF-295 > 100 µM | SNB-19 > 100 µM | SNB-75 > 100 µM | UACC-257 > 100 µM | UACC-62 > 100 µM

COC(=O)C1=CC(=O)C(C(=O)Nc2ccc(OC)cc2)C(c2ccccc2)O1 (stereo not drawn)
inactive: 786-0 20.7 µM | ACHN 41 µM | CCRF-CEM > 77.3 µM | COLO 205 > 100 µM | DMS-273 37.5 µM | HCC 2998 > 53.8 µM | K562 > 67.6 µM | NCI-H226 21.9 µM | NCI-H460 43.9 µM | OVCAR-3 22.7 µM | OVCAR-5 > 100 µM | RXF 393 23.5 µM | SF-295 24 µM | SNB-19 18.1 µM | SNB-75 23.1 µM | UACC-257 72.8 µM | UACC-62 32.2 µM

CN(Cc1ccccc1)/C(=N\C#N)N(Cc1ccccc1)Cc1ccccc1
inactive: 786-0 31.5 µM | ACHN 24.3 µM | BT-549 19.3 µM | CCRF-CEM 37.2 µM | COLO 205 19 µM | DMS-273 20.9 µM | DU-145 39.9 µM | HCC 2998 34.8 µM | K562 25.2 µM | NCI-H226 28.8 µM | NCI-H460 27.6 µM | OVCAR-3 18 µM | OVCAR-5 21.1 µM | PC-3 14.8 µM | RXF 393 28.9 µM | SF-295 14.1 µM | SNB-19 40.2 µM | SNB-75 30.5 µM | UACC-257 21.6 µM | UACC-62 20.4 µM

O=c1c(Br)cc2nc3ccccc3sc-2c1Br
inactive: 786-0 15.4 µM | ACHN > 100 µM | CCRF-CEM 23.8 µM | COLO 205 36.3 µM | DMS-273 > 100 µM | HCC 2998 > 100 µM | K562 18.7 µM | NCI-H226 > 100 µM | NCI-H460 > 100 µM | OVCAR-3 16.9 µM | OVCAR-5 > 100 µM | RXF 393 > 100 µM | SF-295 > 100 µM | SNB-19 > 100 µM | SNB-75 > 100 µM | UACC-257 31.3 µM | UACC-62 25 µM

Source: ChEMBL document CHEMBL1201862, “PubChem BioAssay data set” (2004)
